The term Kb denotes the affinity of an antagonist, worked out from how it opposes an agonist.

Counter-ions that a name gives are not always drawn.

The target of this test is T1, LTD4 induced contraction of guinea pig tracheal spiral strips (Cavia porcellus, UniProt Q2NNR5).
T1 construct: Guinea pig (adult male albino Hartley strain) tracheal spiral strips; from tissue; host or cells: guinea pig trachea (adult male albino Hartley strain), spiral strips
T1 sequence (Q2NNR5 1-340): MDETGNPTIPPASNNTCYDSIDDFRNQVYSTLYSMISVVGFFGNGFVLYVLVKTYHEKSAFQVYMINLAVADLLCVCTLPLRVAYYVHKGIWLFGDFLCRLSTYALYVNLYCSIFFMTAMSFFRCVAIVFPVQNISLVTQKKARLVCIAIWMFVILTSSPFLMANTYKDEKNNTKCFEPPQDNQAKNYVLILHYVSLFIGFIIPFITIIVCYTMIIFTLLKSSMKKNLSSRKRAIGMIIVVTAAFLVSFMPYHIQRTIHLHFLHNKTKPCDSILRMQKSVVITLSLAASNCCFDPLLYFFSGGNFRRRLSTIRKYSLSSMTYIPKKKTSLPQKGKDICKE
As to the kind of experiment: Inhibition of leukotriene (LTD4) induced contraction of guinea pig tracheal tissues in vitro. The test is classed as cell-based. Conditions: LTD4 concentration-response on guinea pig tracheal strips, 30 minutes pretreatment with test compound; KB from EC30 shift; current average where tested more than once; read-out: In Vitro Log K8 (-log KB, leukotriene antagonist activity) (converted). The method, then: The leukotriene antagonist activity of the compounds of this invention is measured by the ability of the compounds to inhibit the leukotriene induced contraction of guinea pig tracheal tissues in vitro. The following methodology was employed:
In vitro: Guinea pig (adult male albino Hartley strain) tracheal spiral strips of approximate dimensions 2 to 3 mm cross-sectional width an 3.5 cm length were bathed in modified Krebs buffer in jacketed 10 ml tissue bath and continuously aerated with 95% O2 /5% CO2. The tissues were connected via silk suture to force displacement transducers for recording isometric tension. The tissues were equilibrated for 1 hr., pretreated for 15 minutes with meclofenamic acid […] to remove intrinsic prostaglandin responses, and then pretreated for an additional 30 minutes with either the test compound or vehicle control. A cumulative concentration-response curve for LTD4 on triplicate tissues was generated by successive increases in the bath concentration of the LTD4. In order to minimize intertissue variability, the percentage of the maximum response obtained to a reference agonist, carbachol […].
Calculations: The averages of the triplicate LTD4 concentration-response curves both in the presence and absence of the test compound were plotted on log graph paper. The concentration of LTD4 needed to elicit 30% of the contraction elicited by carbachol was measured and defined as the EC30. The -log KB value for the test compound was determined by the following equations: [formula] 2. KB =concentration of test compound/(X-1)
The antagonist activity of representative compounds of this invention is tabulated below in Table I (other data appears in the preparative examples). The -log KB values were calculated from the above test protocol. Where compounds were tested more than once, the -log KB values given herein represent the current average data.

As to `CCCCCCCCCCCCc1ccccc1C(SCCc1nnn[nH]1)C(=O)O` (stereo not drawn) [Example 12, 2-(2-dodecylphenyl)-2-[2-(tetrazol-5-yl)ethylthio]acetic acid], the Kb was 316 nM. Then `O=C(O)CCCn1nnnc1SC(CC(=O)O)c1ccccc1CCCCCCCCc1ccccc1` (stereo not drawn) [Example 8, 3-[2-(8-Phenyloctyl)phenyl]-3-[[1-(3-carboxypropyl)-5-tetrazolyl]thio]propanoic acid], with 1000 nM; and `O=C(O)CCCn1nnnc1SC(c1ccccc1CCCCCCCCc1ccccc1)C(O)C(=O)O` (stereo not drawn) [Example 13, 3-[2-(8-phenyloctyl)phenyl]-3-[[1-(3-carboxypropyl)-5-tetrazolyl]thio]-2-hydroxypropanoic acid], with 100 nM; and `CCCCCCCCCCCCc1ccccc1C(Sc1nnnn1CS(=O)(=O)O)C(=O)O` (stereo not drawn) [Example 4, 2-(2-Dodecylphenyl)-2-[(1-sulfomethyl-5-tetrazolyl)thio]acetic acid ammonium salt hydrate], with 398 nM.

In the case of `CCCCCCCCCCCCc1ccccc1C(Sc1nc(C)c(C(=O)O)s1)C(=O)O` (stereo not drawn) [Example 15, 2-(2-Dodecylphenyl)-2-(5-carboxy-4-methyl-2-thiazolylthio)acetic acid], the Kb was 200 nM. For the compound `O=C(O)Cn1nnnc1SC(c1ccccc1CCCCCCCCc1ccccc1)C(O)C(=O)O` (stereo not drawn) [Example 14, 3-[2-(8-phenyloctyl)phenyl]-3-[(1-carboxymethyl-5-tetrazolyl)thio]-2-hydroxypropanoic acid], the Kb is 100 nM. For `O=C(O)CC(Sc1nnnn1CC(=O)O)c1ccccc1CCCCCCCCc1ccccc1` (stereo not drawn) [Example 7, 3-[2-(8-Phenyloctyl)phenyl]-3-[(1-carboxymethyl-5-tetrazolyl)thio]propanoic acid] the value was 501 nM; for `CCCCCCCCCCCCc1ccccc1C(CC(=O)O)Sc1nnnn1CCCC(=O)O` (stereo not drawn) [Example 6, 3-(2-dodecylphenyl)-3-[[1-(3-carboxypropyl)-5-tetrazolyl]thio]propanoicacid], 251 nM.

As for `CCCCCCCCCCCCc1ccccc1C(Sc1nnnn1CCCC(=O)O)C(=O)O` (stereo not drawn) [Example 3, 2-(2-Dodecylphenyl)-2-[[1-(3-carboxypropyl)-5-tetrazolyl]thio]acetic acid], the antagonist dissociation constant (Kb) is 39.8 nM.

Source of the values: patent US5135938A, “Leukotriene antagonists” (SmithKline Beecham Corporation, priority 1990, dated 1992).
